The test system of one data set is 1,5-AG. Put plainly: Level of 1,5-AG in subjects having GSD Ib after Jardiance treatment. It is filed as in vivo, human. The following applies: reference range in normal adults 10.7-32.0, in µg/mL (unit assumed). Here is the method: The level of 1,5-AG was determined in 6 subjects having GSD Ib. Here, the reference range of 1,5-AG in normal, non-GSD Ib adults is 10.7-32.0.

The conditions of data set [1]: cited from earlier work.

Values joined by “and” are separate entries in the source; they are usually repeats but may differ in a detail not shown here. Identical values can stand only once.

As for `OC[C@H]1O[C@@H](c2ccc(Cl)c(Cc3ccc(O[C@H]4CCOC4)cc3)c2)[C@H](O)[C@@H](O)[C@@H]1O` [Jardiance], the “Level of 1,5-AG After Jardiance Treatment” value in the data set with 1,5-AG (first value after treatment) is 20.7 and 33.1; with 1,5-AG (later value ('then')) it was 7.8.
Regarding `OC[C@H]1OC[C@H](O)[C@@H](O)[C@@H]1O` [1,5-AG, 1,5-anhydroglucitol], the half-life in blood in data set [1] (blood) was 1-2 weeks. In data set [1] (reabsorption at sodium glucose active cotransporter (SGLT4)), the “excreted amount in urine reabsorbed by the kidneys” value was “About 99.9%”.

These data come from patent publication US20230366887A1, “METHODS OF DETECTING AND USING BIOMARKERS FOR GLYCOGEN STORAGE DISEASES” (Duke University, priority 2020, published 2023).
